Assays:
[1] = target: T1, human recombinant dopamine D3 receptor (Homo sapiens, UniProt P35462); assay: inhibition of [125I]iodosulpride binding, D3 receptor; conditions: for selectivity ratio, D2 receptor affinity relative to D3 receptor affinity: D2 vs D3, times lower affinity at D2; for Ki: [125I]iodosulpride binding, cells expressing human recombinant receptor, read-out: affinity for the D3 receptor
T1 construct: expressed in transfected cells
Experimental: (§1) The activity of the derivatives of formula (I) according to the invention was evaluated with respect to cells expressing human recombinant dopamine receptors. The inhibition constants (Ki) were measured by inhibition of [^125I]iodosulpride binding as described by Sokoloff et al. (1992). The degree of stimulation of the D3 receptor was determined by measuring the incorporation of [^3H]-thymidine in NG 108-15 cells expressing the D3 receptor (Pilon et al., 1994; Sautel et al., 1995).

human D3 receptor = target: T2, human D3 receptor (Homo sapiens, UniProt P35462); assay: mitogenesis assay, [3H]thymidine incorporation in NG 108-15 cells expressing the D3 receptor; type: cell-based; conditions: for EC50: read-out: 50% effective concentration (EC50), mitogenesis; for intrinsic activity (efficacy): relative to quinpirole (full agonist, efficacy 1), nafadotride is full antagonist (efficacy 0)
T2 construct: expressed in transfected cells; host or cells: NG 108-15 cells
T2 sequence (P35462 whole entry): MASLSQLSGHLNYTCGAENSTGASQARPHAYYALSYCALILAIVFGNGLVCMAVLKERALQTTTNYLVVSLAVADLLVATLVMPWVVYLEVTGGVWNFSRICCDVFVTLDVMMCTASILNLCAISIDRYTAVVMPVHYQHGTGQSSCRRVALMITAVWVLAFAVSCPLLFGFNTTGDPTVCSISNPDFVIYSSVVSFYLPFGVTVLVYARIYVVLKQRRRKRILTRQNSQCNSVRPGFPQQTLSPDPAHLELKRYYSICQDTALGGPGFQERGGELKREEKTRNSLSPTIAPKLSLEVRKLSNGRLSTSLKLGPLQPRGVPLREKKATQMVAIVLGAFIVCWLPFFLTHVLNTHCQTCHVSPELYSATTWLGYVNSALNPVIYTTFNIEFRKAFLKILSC
Experimental: The activity of the derivatives of formula (I) according to the invention was evaluated with respect to cells expressing human recombinant dopamine receptors.
I-28 activity in vitro towards recombinant D3 receptor has been determined using a validated mitogenesis assay which was performed as follows:
After a 24 h-culture, cells were washed twice with culture medium without fetal calf serum and incubated for 16 hours with drugs in four replicates. Then [^3H]thymidine (1 μCi per well) was added for 2 hours and cells were harvested by vacuum filtration through Whatman GF/C fiber filters using an automated cell harvester (Brandel-Beckman) and rinsed 10 times with 200 μl 50 mM potassium phosphate buffer containing 150 mM NaCl. Radioactivity retained on filters was counted by liquid scintagraphy.

[2] = target: T3, human recombinant dopamine D2 receptor (Homo sapiens, UniProt P14416); assay: inhibition of [125I]iodosulpride binding, D2 receptor; conditions: cells expressing human recombinant receptor, read-out: affinity for the D2 receptor
T3 construct: expressed in transfected cells
T3 sequence (P14416 whole entry): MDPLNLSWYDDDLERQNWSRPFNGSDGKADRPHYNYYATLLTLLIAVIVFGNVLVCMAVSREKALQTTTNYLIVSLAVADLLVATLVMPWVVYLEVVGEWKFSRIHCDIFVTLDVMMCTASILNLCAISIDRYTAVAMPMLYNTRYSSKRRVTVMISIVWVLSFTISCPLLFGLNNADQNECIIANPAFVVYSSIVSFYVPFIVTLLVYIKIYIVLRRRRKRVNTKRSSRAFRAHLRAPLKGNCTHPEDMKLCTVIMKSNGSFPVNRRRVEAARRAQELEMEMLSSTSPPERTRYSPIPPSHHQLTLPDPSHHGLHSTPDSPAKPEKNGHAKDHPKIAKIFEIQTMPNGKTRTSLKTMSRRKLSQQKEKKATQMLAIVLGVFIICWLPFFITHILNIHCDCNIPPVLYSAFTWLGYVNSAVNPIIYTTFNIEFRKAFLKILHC
Experimental: as §1

[3] = system: spontaneous locomotor activity of mice; assay: spontaneous locomotor activity during habituation in mice; type: in vivo
Experimental: (§2) Activity of I-28 in vivo was assessed by using a simple test recently developed (Leriche et al. 2003 and international PCT application WO 2004/084952).
(§3) Male Swiss mice (Charles River, France), weighing 26-28 g, were housed six per cage (25×15×13 cm), on a 12 h/12 h light/dark cycle (lights on at 07:00 a.m.), with food and water freely available. Room temperature ranged from 20° C. to 22° C. and humidity varied between 55% and 65%.
(§4) Dizocilpine (MK-801) [(+)-5-methyl-10,11-dihydro-5H-dibenzo[a,d]cyclohepten-5,10-imine maleate] (Sigma) was dissolved in saline (0.9% NaCl). I-28 was dissolved in a few drops of HCl and distilled water, and the pH of the solution was adjusted to pH 5 using NaOH. The doses of I-28 are expressed as the weight of the base. The compounds were injected i.p. in a volume of 5 ml·kg^−1.
All experiments were conducted between 2.00 p.m. and 6.00 p.m., and the animals were kept in the test room at least 1 hour before recording their activity. The locomotor activity was measured in an actimeter that was composed of eight individual activity cages (30×15×18 cm, with sawdust on the floor) transected by infrared beams (Imetronic, Pessac, France). […]
Mice were injected with either Vehicle (distilled water pH 5) or I-28 (0.1, 0.3, 1 or 3 mg·kg^−1), and their horizontal locomotor activity was measured for 30 minutes (spontaneous locomotor activity). […]

[4] = system: MK-801-induced hyperactivity in mice; assay: MK-801-induced hyperactivity in mice; type: in vivo
Experimental: as §2, §3, §4
All experiments were conducted between 2.00 p.m. and 6.00 p.m., and the animals were kept in the test room at least 1 hour before recording their activity. The locomotor activity was measured in an actimeter that was composed of eight individual activity cages (30×15×18 cm, with sawdust on the floor) transected by infrared beams (Imetronic, Pessac, France). Counts for forward horizontal activity were incremented each time the animal moved from one-half part of the cage to the other, corresponding to disruption of two crossed parallel beams distant of 14 cm. In time-course studies, counts were summed every 5 minute.
Mice were injected with either Vehicle (distilled water pH 5) or I-28 (0.1, 0.3, 1 or 3 mg·kg^−1), and their horizontal locomotor activity was measured for 30 minutes (spontaneous locomotor activity). They were subsequently treated with saline or MK-801 (0.12 mg·kg^−1) and the activity was measured for 1 hour (MK-801-induced locomotor activity).

[5] = NG 108-15 cells transfected with the human D3 receptor

T1 sequence (P35462 whole entry): as the sequence (P35462 whole entry) above

Compound	selectivity ratio, D2 receptor affinity relative to D3 receptor affinity [1]	Ki [1]	EC50 (human D3 receptor; [5])	intrinsic activity (efficacy) (human D3 receptor)	Ki [2]	maximal response, % of that produced by quinpirole (human D3 receptor; NG 108-15 cells transfected with the human D3 receptor, mean ±SEM)	change of spontaneous activity ([3]; 3.0 mg·kg−1 i.p., P=0.042)	effect on spontaneous locomotor activity during habituation ([3]; i.p., doses below 3.0 mg·kg−1, 30 minutes)	blood-brain barrier passage ([4]; inferred from activity after systemic administration in mice)	inhibition of MK-801-induced hyperactivity ([4]; mice, 0.3 mg·kg−1 i.p., P=0.031)	inhibition of MK-801-induced hyperactivity ([4]; mice, 1.0 mg·kg−1 i.p., P=0.0073)	inhibition of MK-801-induced hyperactivity ([4]; mice, 3.0 mg·kg−1 i.p., P=0.0012)	ED50, inhibition of MK-801-induced hyperactivity ([4]; mice, i.p., MK-801 0.12 mg·kg−1)
O=C(NCCCCN1CCN(c2cccc(O)c2)CC1)C1=Cc2ccccc2CC1 [Example 4, N-[4-[(3-hydroxyphenyl)piperazine-1-yl]butyl]-3,4-dihydronaphtalene-2-carboxamide]	160	0.71 nM	2.2 nM	0.85									
N#Cc1cccc(N2CCN(CCCCNC(=O)C3=Cc4ccccc4CC3)CC2)c1 [I-28]		2.1 nM	6.3 nM	0.37	318 nM	37±2%	−25%	no effect	crosses the blood-brain barrier	36.7%	46.6%	57.3%	about 0.3 mg·kg−1
CCCCN1CCCC1CNC(=O)c1cc(C#N)c2ccccc2c1OC (centres unmarked) [nafadotride, reference compound]				0									
O=C(NCCCCN1CCN(c2cccc(O)c2)CC1)c1ccc2ccccc2c1 [reference compound]	59	0.74 nM			44 nM								

— patent US7875617B2, “3,4-dihydro-2-naphthamide derivatives as selective dopamine D3 ligands” (Institut National de la Sante et de la Recherche Medicale …, priority 2005, dated 2011)
